Reference: US6521443B1, “Growth medium for lactobacilli containing amino acids, nucleosides and iron” (Nestec S.A., priority 1999, dated 2003)

Experiments:
Format in all cases: cell-based
[1] = tested on: Lactobacilli; assay: growth of Lactobacilli in supplemented milk (general trials); conditions: addition of ribonucleosides to milk
Method: In order to find the identity of other stimulatory substances, several trials were performed with ribonucleotide precursors, that is free bases such as adenine, guanine, cytosine, thymine, and uracil, ribonucleosides such as adenosine, cytidine, uridine, and guanosine, and 2′-deoxyribonucleosides such as deoxyadenosine, deoxyguanosine, deoxycytidine, deoxyuridine and thymidine. These compounds were supplemented to milk as concentrated alkaline or neutral solutions at different concentrations.
This finding confirmed the hypothesis that the low level of purines in milk negatively affects bacterial growth therein. […] Without being bound by theory, it is believed that the high content of orotic acid allows the synthesis of pyrimidine bases. No significant differences in pH-values were detected by the addition of free bases and deoxyribonucleosides between aerobic and anaerobic conditions. […] The positive effect was observed particularly with the addition of ribonucleosides in anaerobic environment.
(§1) The growth results were estimated by cell counts and a final pH measurement performed after 24 hours incubation at 37 ° C. Rapid Analysis of Bacterial Impedance Technique (RABIT) (Don Whitley Scientific, West Yorkshire, UK) was used to perform trials with skim and whole UHT milk for 24 hours at 37° C.

[2] = tested on: L. johnsonii ATCC 33200; assay: omission technique with RABIT in skim milk; conditions: skim milk with four ribonucleosides and ferrous sulphate
Method: as §1
In order to determine those amino acids having an essential role for L. johnsonii growth in milk, the “omission technique” (Reiter, B. & Oram, J. D, I. Dairy Res, 29 (1962), 63-77) was applied by culturing the strain ATCC 33200^T in skim milk, adding four ribonucleosides and ferrous sulphate (positive control), supplemented with the mixture of 19 amino acids described above deprived of one particular component at each given time.

[3] = tested on: L. johnsonii; assay: growth assay in milk, L. johnsonii (strain not specified)
Method: Skim milk (Difco) 10% w/v in sterile water and whole fat UHT milk (Parmalat, Italy) were used to perform the growth assays. The milk tubes were 1% inoculated from an overnight MRS culture washed twice and finally re-suspended with the same amount of sterile distilled water in order to avoid nutrient transfer via the medium.
Milk tubes were incubated aerobically in a thermostat (Sorvall Heraeus) at 37° C. for 24 hours, or anaerobically in an anaerobic incubator (Model 1024, Forma Scientific, USA) at 37° C. for 24 hours.
The chemicals supplemented to the milk were added as concentrated solutions prepared according to standard methods, i.e., the Merck Index instructions. The final pH of milk was adjusted to 6.8 after supplementation using an aqueous 4N sodium hydroxide solution. The initial pH of the 10% skim milk solution and whole fat UHT milk was 6.8 and 6.7, respectively.
as §1
A final pH of 4.1 was measured after amino acids supplementation, but the cell count was still not satisfactory. The cell count when a 10% skim milk with 19 amino acids added increased from 1.0×10^7 CFU/ml to 40×10^7 CFU/ml, which is a factor of 40 increase but is less than the factor of 300 increase observed with 10% skim milk and yeast extract.

Nc1ncnc2c1ncn2[C@@H]1O[C@H](CO)[C@@H](O)[C@H]1O [adenosine]
improvement of growth conditions in milk [1]: strongest effect

C[C@H](N)C(=O)O [alanine]
effect of amino acid on growth (RABIT, omission technique) [2]: excellent results

N[C@@H](CS)C(=O)O [cysteine]
pH in the presence of cysteine ([3]; aerobic conditions): 3.9 | pH in absence of cysteine ([3]; anaerobic conditions): 4.3 | effect of amino acid on growth (RABIT, omission technique) [2]: excellent results

Nc1nc2c(ncn2[C@@H]2O[C@H](CO)[C@@H](O)[C@H]2O)c(=O)[nH]1 [guanosine]
improvement of growth conditions in milk [1]: strongest effect

CC[C@H](C)[C@H](N)C(=O)O [isoleucine]
effect of amino acid on growth (RABIT, omission technique) [2]: excellent results

N[C@@H](CO)C(=O)O [serine]
effect of amino acid on growth (RABIT, omission technique) [2]: excellent results

O=C(O)CS [thioglycollic acid]
cell counts ([3]; aerobic conditions, final concentration 0.5% v/v, replacing cysteine): more than 100×10^7 CFU/ml
